In ChEMBL document CHEMBL4433262, “Synthesis and biological evaluation of novel benzo[c][1,2,5]thiadiazol-5-yl and thieno[3,2-c]- pyridin-2-yl imidazole derivatives as ALK5 inhibitors” (Bioorg Med Chem Lett, 2019) one finds IC50, Ratio IC50 and inhibition data, which are given here for 14 molecules.

Assay [1] deals with T1, Mitogen-activated protein kinase 14 (Homo sapiens, UniProt Q16539). The assay can be described thus: Inhibition of human recombinant untagged p38alpha expressed in Escherichia coli using ATF2 as substrate incubated for 60 mins in presence of [33P]-ATP by scintillation counting method.
A further assay deals with T2, TGF-beta receptor type-1 (Homo sapiens, UniProt P36897).
T2 sequence (P36897 whole entry): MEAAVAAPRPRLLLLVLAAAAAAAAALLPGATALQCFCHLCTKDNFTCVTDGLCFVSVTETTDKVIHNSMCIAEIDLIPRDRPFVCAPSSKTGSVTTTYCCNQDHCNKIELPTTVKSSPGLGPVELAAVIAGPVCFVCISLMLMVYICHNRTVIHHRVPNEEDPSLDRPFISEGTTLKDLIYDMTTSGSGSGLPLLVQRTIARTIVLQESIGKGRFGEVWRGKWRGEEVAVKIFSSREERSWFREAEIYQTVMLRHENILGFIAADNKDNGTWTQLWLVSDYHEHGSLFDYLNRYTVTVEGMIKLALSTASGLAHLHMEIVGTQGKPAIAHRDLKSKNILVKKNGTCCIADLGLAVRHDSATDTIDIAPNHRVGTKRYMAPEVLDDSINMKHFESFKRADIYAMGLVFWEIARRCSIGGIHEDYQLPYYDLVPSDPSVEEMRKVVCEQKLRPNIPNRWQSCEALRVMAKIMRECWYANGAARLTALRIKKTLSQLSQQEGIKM
In words: Inhibition of human recombinant GST-tagged ALK5 expressed in Sf9 insect cells using casein as substrate incubated for 60 mins in presence of [33P]-ATP by scintillation counting method.

The target of assay [2] is T1, Mitogen-activated protein kinase 14. In words: Potency index, ratio of IC50 for LY-2157299 to IC50 for test compound for inhibition of human recombinant untagged p38alpha expressed in Escherichia coli using ATF2 as substrate incubated for 60 mins in presence of [33P]-ATP by scintillation counting method.
The target of assay [3] is T3, TGF-beta receptor type-1 (Homo sapiens) (UniProt P36897).
T3 sequence (whole entry): T2 sequence (P36897 whole entry)
In words: Inhibition of ALK5 in human HUVEC cells assessed as reduction in TGFbeta1-induced cell motility at 10 uM incubated for 0 to 48 hrs by wound healing assay. Type of assay: cell-based.

The target in assay [4] is T3, TGF-beta receptor type-1 (Homo sapiens). The assay can be described thus: Inhibition of ALK5 in human SPC-A1 cells assessed as reduction in TGFbeta1-induced Smad2 phosphorylation at 0.1 to 0.5 uM incubated for 36 hrs by Western blot analysis. Type of assay: cell-based. A general note: Immunoblotting shows a protein as a band on a membrane.
Assay [5] has the same target. In words: Potency index, ratio of IC50 for LY-2157299 to IC50 for test compound for inhibition of human recombinant GST-tagged ALK5 expressed in Sf9 insect cells using casein as substrate incubated for 60 mins in presence of [33P]-ATP by scintillation counting method.
The target is the same in assay [6]. The assay can be described thus: Inhibition of ALK5 in human HepG2 cells assessed as reduction in TGFbeta1-induced Smad2 phosphorylation incubated for 36 hrs by Western blot analysis. Type of assay: cell-based.
The target is the same in assay [7]. The assay can be described thus: Potency index, ratio of IC50 for EW-7197 to IC50 for test compound for inhibition of human recombinant GST-tagged ALK5 expressed in Sf9 insect cells using casein as substrate incubated for 60 mins in presence of [33P]-ATP by scintillation counting method.
The target of assay [8] is T1, Mitogen-activated protein kinase 14. The assay can be described thus: Potency index, ratio of IC50 for EW-7197 to IC50 for test compound for inhibition of human recombinant untagged p38alpha expressed in Escherichia coli using ATF2 as substrate incubated for 60 mins in presence of [33P]-ATP by scintillation counting.

The source made the active and inactive calls. The rule behind the calls is not given here.

T1 sequence (Q16539 whole entry): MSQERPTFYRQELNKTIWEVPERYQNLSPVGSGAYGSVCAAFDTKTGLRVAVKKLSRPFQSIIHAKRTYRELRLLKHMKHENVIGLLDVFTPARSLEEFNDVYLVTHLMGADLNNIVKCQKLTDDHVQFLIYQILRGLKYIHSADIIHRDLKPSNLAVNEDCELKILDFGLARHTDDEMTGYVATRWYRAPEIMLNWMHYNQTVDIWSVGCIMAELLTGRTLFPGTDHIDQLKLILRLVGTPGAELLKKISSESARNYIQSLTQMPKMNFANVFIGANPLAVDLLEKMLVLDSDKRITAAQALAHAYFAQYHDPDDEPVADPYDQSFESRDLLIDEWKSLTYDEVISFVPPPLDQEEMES

A word on the IC50: it is the concentration needed to halve the response being measured. Turning to `Cc1cccc(-c2[nH]c(CNc3ccc(F)cc3)nc2-c2cc3cnccc3s2)n1`, the IC50 in [1] turned out to be 4840 nM; on TGF-beta receptor type-1, 42 nM.
On the same counts, the results for `Cc1cccc(-c2[nH]c(CNc3ccc(F)cc3)nc2-c2ccc3nsnc3c2)n1` are 831 nM and 10 nM.
`Cc1cccc(NCc2nc(-c3ccc4nsnc4c3)c(-c3cccc(C)n3)[nH]2)c1`: the values for the IC50 (in assay [1]; on TGF-beta receptor type-1) were 513 nM and 13 nM, respectively.
Regarding `Cc1cccc(-c2[nH]c(CNc3ccccc3F)nc2-c2ccc3nsnc3c2)n1`, the IC50 in assay [1] came to 1170 nM; at TGF-beta receptor type-1, 11 nM.
On the same counts, the results for `Cc1cccc(-c2[nH]c(CNc3ccccc3C)nc2-c2cc3cnccc3s2)n1` are 2440 nM and 14 nM.
Turning to `Cc1cccc(-c2[nH]c(CNc3cccc(F)c3)nc2-c2ccc3nsnc3c2)n1`, the Ratio IC50 in assay [2] amounted to 3.3; in [5], 16.1; in assay [7], 1.8; in assay [8], 19.9. The inhibition result in assay [3] and in [4] was “Active” throughout. Moreover, the IC50 was found to be 148 nM in assay [1] and 8 nM at TGF-beta receptor type-1. For the same molecule, the inhibition result in assay [6] was “Dose-dependent effect”.
Take `Cc1cccc(-c2[nH]c(CNc3ccccc3F)nc2-c2cc3cnccc3s2)n1`: the IC50 in assay [1] worked out at 6060 nM; on TGF-beta receptor type-1, 23 nM.
On the same counts, the results for `Cc1cccc(-c2[nH]c(CNc3ccccc3C)nc2-c2ccc3nsnc3c2)n1` are 899 nM and 21 nM.
Turning to `Cc1ccc(NCc2nc(-c3cc4cnccc4s3)c(-c3cccc(C)n3)[nH]2)cc1`, the IC50 was more than 10000 nM in [1] and 43 nM at TGF-beta receptor type-1.
The like results for `Cc1ccc(NCc2nc(-c3ccc4nsnc4c3)c(-c3cccc(C)n3)[nH]2)cc1` were, in that order, 7700 nM and 22 nM.
The like results for `Cc1cccc(NCc2nc(-c3cc4cnccc4s3)c(-c3cccc(C)n3)[nH]2)c1` were, in that order, 2220 nM and 19 nM.
On the same counts, the results for `Cc1cccc(-c2[nH]c(CNc3cccc(F)c3)nc2-c2cc3cnccc3s2)n1` are 1520 nM and 17 nM.
`Cc1cccc(-c2[nH]c(CNc3ccccc3)nc2-c2cc3cnccc3s2)n1`: the results for the IC50 (in assay [1]; at TGF-beta receptor type-1) were 4400 nM and 25 nM, respectively.
The like results for `Cc1cccc(-c2[nH]c(CNc3ccccc3)nc2-c2ccc3nsnc3c2)n1` were, in that order, 763 nM and 14 nM.
